The values below come from US20240218022A1, “ANTI-VISTA MACROCYCLIC PEPTIDES AND COMPOSITIONS” (BRISTOL-MYERS SQUIBB COMPANY, priority 2022, published 2024).

Positions of bridges follow the written chain, without caps; N, C: chain ends. Non-standard residues stand in square brackets, D forms with d. Residues, ends and D or L forms follow the SMILES beside them. Phe(3-Me) = Cc1cccc(C[C@H](N)C(=O)O)c1; Cit = NC(=O)NCCC[C@H](N)C(=O)O; Ahp(2) = CCCCC[C@H](N)C(=O)O; NMeNle = CCCC[C@H](NC)C(=O)O; NHexGly = CCCCCCNCC(=O)O; Nle = CCCC[C@H](N)C(=O)O; Orn = NCCC[C@H](N)C(=O)O

The experiment has as its target T1, mouse VISTA (mVISTA) (Mus musculus, UniProt Q9D659).
T1 construct: expressed in transfected cells; host or cells: Human embryonic kidney 293T cells
T1 sequence (Q9D659 33-308): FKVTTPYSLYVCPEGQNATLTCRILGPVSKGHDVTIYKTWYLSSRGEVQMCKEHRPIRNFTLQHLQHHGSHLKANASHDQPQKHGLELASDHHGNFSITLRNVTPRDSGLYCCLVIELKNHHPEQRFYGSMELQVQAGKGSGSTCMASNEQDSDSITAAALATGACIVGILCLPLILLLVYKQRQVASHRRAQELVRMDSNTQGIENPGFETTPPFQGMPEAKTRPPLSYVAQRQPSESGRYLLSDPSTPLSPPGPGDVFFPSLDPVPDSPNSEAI
Description: Cell-Based Binding High-Content Assay For mVISTA (HC CBA mVISTA). The conditions noted are these: the 19th table, scaffold drawing 22; read-out: HC CBA mVISTA IC50. The method, boiled down:
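mVISTA-293T, 4,000 cells/well; cpd ± washout step; biotin-peptide 2 nM final, 30 min RT; SA-Alexa 647 30 min; formaldehyde/Hoechst fix; HCS imaging; 4PL IC50.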
For the compound `CCCCCCN1CC(=O)N[C@@H](Cc2ccc(O)cc2)C(=O)N[C@@H](CCCC)C(=O)N[C@@H](CC(=O)O)C(=O)N[C@@H](CCCN)C(=O)N[C@@H](CC(C)C)C(=O)N[C@@H](CCCCC)C(=O)N2CCC[C@H]2C(=O)N[C@@H](C(C)C)C(=O)N[C@@H](CC(=O)O)C(=O)N[C@H](C(=O)N[C@@H](CO)C(N)=O)CSCC(=O)N[C@@H](Cc2cccc(C)c2)C(=O)N[C@@H](Cc2ccc(O)cc2)C(=O)N[C@@H](CC(=O)O)C1=O` [compound 1436] ({CH2CO}-[Phe(3-Me)]YD[NHexGly]Y[Nle]D[Orn]L[Ahp(2)]PVDCS-NH2; thioether N-14), the 50% inhibitory concentration (IC50) (as a rule, the concentration needed to halve the response being measured) amounted to 10.6 nM.
In the case of `CCCCCCN1CC(=O)N[C@@H](Cc2ccc(O)cc2)C(=O)N[C@@H](CCCC)C(=O)N[C@@H](CC(=O)O)C(=O)N[C@@H](CCCNC(=N)N)C(=O)N[C@@H](CC(C)C)C(=O)N[C@@H](CCCCC)C(=O)N2CCC[C@H]2C(=O)N[C@@H](C(C)C)C(=O)N[C@@H](CC(=O)O)C(=O)N[C@H](C(=O)N[C@@H](CO)C(N)=O)CSCC(=O)N[C@@H](Cc2cccc(C)c2)C(=O)N[C@@H](Cc2ccc(O)cc2)C(=O)N[C@@H](CC(=O)O)C1=O` [compound 1437] ({CH2CO}-[Phe(3-Me)]YD[NHexGly]Y[Nle]DRL[Ahp(2)]PVDCS-NH2; thioether N-14), the IC50 is 18.2 nM.
Take `CCCCCCN1CC(=O)N[C@@H](Cc2ccc(O)cc2)C(=O)N[C@@H](CCCC)C(=O)N[C@@H](CC(=O)O)C(=O)N[C@@H](CCCNC(N)=O)C(=O)N(C)[C@@H](CCCC)C(=O)N[C@@H](CCCCC)C(=O)N2CCC[C@H]2C(=O)N[C@@H](C(C)C)C(=O)N[C@@H](CC(=O)O)C(=O)N[C@H](C(=O)N[C@@H](CC(=O)O)C(N)=O)CSCC(=O)N[C@@H](Cc2cccc(C)c2)C(=O)N[C@@H](Cc2c[nH]c3ccccc23)C(=O)N[C@@H](CC(=O)O)C1=O` [compound 1438] ({CH2CO}-[Phe(3-Me)]WD[NHexGly]Y[Nle]D[Cit][NMeNle][Ahp(2)]PVDCD-NH2; thioether N-14): the IC50 came out at 22.4 nM.
In the case of `CCCCCCN1CC(=O)N[C@@H](Cc2ccc(O)cc2)C(=O)N[C@@H](CCCC)C(=O)N[C@@H](CC(=O)O)C(=O)N[C@@H](CCCN)C(=O)N(C)[C@@H](CCCC)C(=O)N[C@@H](CCCCC)C(=O)N2CCC[C@H]2C(=O)N[C@@H](C(C)C)C(=O)N[C@@H](CC(=O)O)C(=O)N[C@H](C(=O)N[C@@H](CC(=O)O)C(N)=O)CSCC(=O)N[C@@H](Cc2cccc(C)c2)C(=O)N[C@@H](Cc2c[nH]c3ccccc23)C(=O)N[C@@H](CC(=O)O)C1=O` [compound 1439] ({CH2CO}-[Phe(3-Me)]WD[NHexGly]Y[Nle]D[Orn][NMeNle][Ahp(2)]PVDCD-NH2; thioether N-14) it was 9.3 nM; in that of `CCCCCCN1CC(=O)N[C@@H](Cc2ccc(O)cc2)C(=O)N[C@@H](CCCC)C(=O)N[C@@H](CC(=O)O)C(=O)N[C@@H](CCCNC(=N)N)C(=O)N(C)[C@@H](CCCC)C(=O)N[C@@H](CCCCC)C(=O)N2CCC[C@H]2C(=O)N[C@@H](C(C)C)C(=O)N[C@@H](CC(=O)O)C(=O)N[C@H](C(=O)N[C@@H](CC(=O)O)C(N)=O)CSCC(=O)N[C@@H](Cc2cccc(C)c2)C(=O)N[C@@H](Cc2c[nH]c3ccccc23)C(=O)N[C@@H](CC(=O)O)C1=O` [compound 1440] ({CH2CO}-[Phe(3-Me)]WD[NHexGly]Y[Nle]DR[NMeNle][Ahp(2)]PVDCD-NH2; thioether N-14), 14.8 nM.
For the compound `CCCCCCN1CC(=O)N[C@@H](Cc2ccc(O)cc2)C(=O)N[C@@H](CCCCC)C(=O)N[C@@H](CC(N)=O)C(=O)N[C@@H](CCCNC(=N)N)C(=O)N(C)[C@@H](CCCC)C(=O)N[C@@H](CCCCC)C(=O)N2CCC[C@H]2C(=O)N[C@@H](C(C)C)C(=O)N[C@@H](CC(=O)O)C(=O)N[C@H](C(=O)NCC(=O)O)CSCC(=O)N[C@@H](Cc2cccc(C)c2)C(=O)N[C@@H](Cc2c[nH]c3ccccc23)C(=O)N[C@@H](CC(=O)O)C1=O` [compound 1441] ({CH2CO}-[Phe(3-Me)]WD[NHexGly]Y[Ahp(2)]NR[NMeNle][Ahp(2)]PVDCG-OH; thioether N-14), the 50% inhibitory concentration (IC50) is 10.2 nM.
In the case of `CCCCCCN1CC(=O)N[C@@H](Cc2ccc(O)cc2)C(=O)N[C@@H](CCCC)C(=O)N[C@@H](CC(N)=O)C(=O)N[C@@H](CCCNC(=N)N)C(=O)N(C)[C@@H](CCCC)C(=O)N[C@@H](CCCCC)C(=O)N2CCC[C@H]2C(=O)N[C@@H](C(C)C)C(=O)N[C@@H](CC(=O)O)C(=O)N[C@H](C(=O)NCC(=O)O)CSCC(=O)N[C@@H](Cc2cccc(C)c2)C(=O)N[C@@H](Cc2c[nH]c3ccccc23)C(=O)N[C@@H](CC(=O)O)C1=O` [compound 1442] ({CH2CO}-[Phe(3-Me)]WD[NHexGly]Y[Nle]NR[NMeNle][Ahp(2)]PVDCG-OH; thioether N-14) it was 27.7 nM; in that of `CCCCCCN1CC(=O)N[C@@H](Cc2ccc(O)cc2)C(=O)N[C@@H](CCCC)C(=O)N[C@@H](CC(N)=O)C(=O)N[C@@H](CCCNC(N)=O)C(=O)N(C)[C@@H](CCCC)C(=O)N[C@@H](CCCCC)C(=O)N2CCC[C@H]2C(=O)N[C@@H](C(C)C)C(=O)N[C@@H](CC(=O)O)C(=O)N[C@H](C(=O)NCC(=O)O)CSCC(=O)N[C@@H](Cc2cccc(C)c2)C(=O)N[C@@H](Cc2c[nH]c3ccccc23)C(=O)N[C@@H](CC(=O)O)C1=O` [compound 1443] ({CH2CO}-[Phe(3-Me)]WD[NHexGly]Y[Nle]N[Cit][NMeNle][Ahp(2)]PVDCG-OH; thioether N-14), 21.2 nM; in that of `CCCCCCN1CC(=O)N[C@@H](Cc2ccc(O)cc2)C(=O)N[C@@H](CCCCC)C(=O)N[C@@H](CC(N)=O)C(=O)N[C@@H](CCCNC(=N)N)C(=O)N(C)[C@@H](CCCC)C(=O)N[C@@H](CCCCC)C(=O)N2CCC[C@H]2C(=O)N[C@@H](C(C)C)C(=O)N[C@@H](CC(=O)O)C(=O)N[C@H](C(=O)N[C@@H](CO)C(=O)O)CSCC(=O)N[C@@H](Cc2cccc(C)c2)C(=O)N[C@@H](Cc2c[nH]c3ccccc23)C(=O)N[C@@H](CC(=O)O)C1=O` [compound 1444] ({CH2CO}-[Phe(3-Me)]WD[NHexGly]Y[Ahp(2)]NR[NMeNle][Ahp(2)]PVDCS-OH; thioether N-14), 13.3 nM.
For the compound `CCCCCCN1CC(=O)N[C@@H](Cc2ccc(O)cc2)C(=O)N[C@@H](CCCC)C(=O)N[C@@H](CC(=O)O)C(=O)N[C@@H](CCCNC(=N)N)C(=O)N(C)[C@@H](CCCC)C(=O)N[C@@H](CCCCC)C(=O)N2CCC[C@H]2C(=O)N[C@@H](C(C)C)C(=O)N[C@@H](CC(=O)O)C(=O)N[C@H](C(=O)N[C@@H](CO)C(N)=O)CSCC(=O)N[C@@H](Cc2cccc(C)c2)C(=O)N[C@@H](Cc2c[nH]c3ccccc23)C(=O)N[C@@H](CC(=O)O)C1=O` [compound 1445] ({CH2CO}-[Phe(3-Me)]WD[NHexGly]Y[Nle]DR[NMeNle][Ahp(2)]PVDCS-NH2; thioether N-14), the IC50 was 9.9 nM.
As to `CCCCCCN1CC(=O)N[C@@H](Cc2ccc(O)cc2)C(=O)N[C@@H](CCCC)C(=O)N[C@@H](CC(=O)O)C(=O)N[C@@H](CCCN)C(=O)N(C)[C@@H](CCCC)C(=O)N[C@@H](CCCCC)C(=O)N2CCC[C@H]2C(=O)N[C@@H](C(C)C)C(=O)N[C@@H](CC(=O)O)C(=O)N[C@H](C(=O)N[C@@H](CO)C(N)=O)CSCC(=O)N[C@@H](Cc2cccc(C)c2)C(=O)N[C@@H](Cc2c[nH]c3ccccc23)C(=O)N[C@@H](CC(=O)O)C1=O` [compound 1446] ({CH2CO}-[Phe(3-Me)]WD[NHexGly]Y[Nle]D[Orn][NMeNle][Ahp(2)]PVDCS-NH2; thioether N-14), the IC50 amounted to 9.1 nM.
